How the values were obtained:
Hs-445 (Non-Cancerous) = experiment: Bliss excess, mean over the matrix (fraction); higher = more synergy
Summary of the method: (§1)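 Cell lines in DMEM/F12 or RPMI with 10% FBS were plated in 1536-well plates, held 24 hours at 37°C, 5% CO2, then given two-drug dose matrices for 72 hours (DMSO typically 0.2%). Viability was read by CellTiter-Glo 2.0 luminescence and scaled as inhibition from 0 (vehicle wells) to 1 (blank wells). Combination Emax is the second-highest inhibition in the matrix; Bliss excess is observed combination effect minus expected EA + EB − EA·EB, EA and EB being single-agent effects.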

NY (Osteosarcoma) = experiment: as above
Summary of the method: as §1

[1] = tested on: TT2609-C02 (Thyroid Gland Carcinoma); experiment: as above
Summary of the method: as §1

[2] = tested on: NCI-H1666 (Lung Adenocarcinoma); experiment: as above
Summary of the method: as §1

[3] = tested on: NCI-H64 (Small Cell Lung Carcinoma); experiment: as above
Summary of the method: as §1

[4] = tested on: COLO-320-HSR (Colorectal Carcinoma); experiment: as above
Summary of the method: as §1

[5] = tested on: CCK-81 (Colorectal Carcinoma); experiment: as above
Summary of the method: as §1

CAS-1 (Glioblastoma) = experiment: as above
Summary of the method: as §1

[6] = tested on: COR-L311 (Small Cell Lung Carcinoma); experiment: as above
Summary of the method: as §1

[7] = tested on: TT (Thyroid Gland Carcinoma); experiment: as above
Summary of the method: as §1

[8] = tested on: PANC-10-05 (Pancreatic Carcinoma); experiment: as above
Summary of the method: as §1

[9] = tested on: A3-KAW (B-Cell Non-Hodgkin's Lymphoma); experiment: as above
Summary of the method: as §1

[10] = tested on: A549 (Lung Adenocarcinoma); experiment: as above
Summary of the method: as §1

[11] = tested on: VCaP (Prostate Carcinoma); experiment: as above
Summary of the method: as §1

[12] = tested on: ECC10 (Gastric Carcinoma); experiment: as above
Summary of the method: as §1

[13] = tested on: NCI-H2066 (Squamous Cell Lung Carcinoma); experiment: as above
Summary of the method: as §1

[14] = tested on: NCI-H1693 (Lung Adenocarcinoma); experiment: as above
Summary of the method: as §1

[15] = tested on: NCI-H2141 (Small Cell Lung Carcinoma); experiment: combination Emax (second highest fraction inhibited in the dose matrix, 72 h); higher = more inhibition; extreme values may be limits of the assay
Summary of the method: as §1

[16] = tested on: SISO (Cervical Carcinoma); experiment: as above
Summary of the method: as §1

[17] = tested on: NCI-H1693 (Lung Adenocarcinoma); experiment: as above
Summary of the method: as §1
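For Bliss excess, mean over the matrix in this document: after 72 h of two-drug dosing.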

Row | SMILES | Bliss excess (Hs-445 (Non-Cancerous)) | Bliss excess (NY (Osteosarcoma)) | Bliss excess [1] | Bliss excess [2] | Bliss excess [3] | Bliss excess [4] | Bliss excess [5] | Bliss excess (CAS-1 (Glioblastoma)) | Bliss excess [6] | Bliss excess [7] | Bliss excess [8] | Bliss excess [9] | Bliss excess [10] | Bliss excess [11] | Bliss excess [12] | Bliss excess [13] | Bliss excess [14] | combination Emax [15] | combination Emax [16] | combination Emax [17]
1 | CN(C)CCCOc1ccc(-c2ccc3ncc4c(c3c2)n(C2CCOCC2)c(=O)n4C)cn1 [AZD0156] + C=CCn1c(=O)c2cnc(Nc3ccc(N4CCN(C)CC4)cc3)nc2n1-c1cccc(C(C)(C)O)n1 [AZD1775] (first compound max 1 µM, partner max 1 µM) | 0.0015 | -0.0212 | -0.0119 | -0.0371 | -0.0931 | -0.0454 | -0.0039 | -0.0512 | -0.115 | -0.0951 | -0.0519 | 0.0707 | -0.0807 | -0.0751 | -0.0379 | -0.07 | -0.0242 | 0.558 | 0.566 | 0.179
2 | CN(C)CCCOc1ccc(-c2ccc3ncc4c(c3c2)n(C2CCOCC2)c(=O)n4C)cn1 [AZD0156] + CCN(CCO)CCCOc1ccc2c(Nc3cc(CC(=O)Nc4cccc(F)c4)[nH]n3)ncnc2c1 [AZD2811] (first compound max 1 µM, 7x7, partner max 1 µM) | 0.045 | -0.0466 | -0.0032 | -0.0661 | 0.0802 | -0.0278 | -0.0302 | 0.0191 | 0.0607 | -0.0871 | -0.0169 | 0.121 | -0.0431 | -0.0484 | -0.0028 | -0.0649 | -0.0274 | 0.289 | 0.172 | 0.142
3 | CN(C)CCCOc1ccc(-c2ccc3ncc4c(c3c2)n(C2CCOCC2)c(=O)n4C)cn1 [AZD0156] + C[C@@H]1COCCN1C2=NC(=NC(=C2)C3(CC3)[S@](=N)(=O)C)C4=C5C=CNC5=NC=C4 [AZD6738] (first compound max 1 µM, 7x7, partner max 10 µM) | -0.0409 | -0.0372 | -0.0067 | -0.0274 | -0.0368 | -0.0146 | -0.0161 | -0.0046 | 0.0265 | -0.0583 | -0.0415 | 0.0876 | -0.0652 | -0.037 | -0.0104 | -0.0404 | -0.0424 | 0.462 | 0.588 | 0.192
4 | CN(C)CCCOc1ccc(-c2ccc3ncc4c(c3c2)n(C2CCOCC2)c(=O)n4C)cn1 [AZD0156] + O=C(c1cc(Cc2n[nH]c(=O)c3ccccc23)ccc1F)N1CCN(C(=O)C2CC2)CC1 [Olaparib] (first compound max 3 µM, partner max 3 µM) | -0.0211 | -0.0279 | 0.0251 | 0.0049 | -0.0106 | 0.104 | -0.0131 | 0.0481 | 0.092 | -0.0297 | 0.0378 | 0.276 | 0.0069 | 0.0063 | 0.0522 | 0.0139 | -0.0439 | 0.192 | 0.303 | 0.248
5 | C=CCn1c(=O)c2cnc(Nc3ccc(N4CCN(C)CC4)cc3)nc2n1-c1cccc(C(C)(C)O)n1 [AZD1775] + C1CN(CCC1(C(=O)N[C@@H](CCO)C2=CC=C(C=C2)Cl)N)C3=NC=NC4=C3C=CN4 [Capivasertib] (first compound max 3 µM, partner max 3 µM) | -0.1 | -0.0746 | 0.0087 | -0.0773 | 0.0202 | -0.0314 | -0.0214 | 0.0104 | -0.0057 | -0.0079 | -0.102 | 0.0032 | 0.015 | -0.061 | -0.0156 | -0.0567 | -0.0389 | 0.641 | 0.731 | 0.449
6 | C=CCn1c(=O)c2cnc(Nc3ccc(N4CCN(C)CC4)cc3)nc2n1-c1cccc(C(C)(C)O)n1 [AZD1775] + C[C@@H]1COCCN1C2=NC(=NC(=C2)C3(CC3)[S@](=N)(=O)C)C4=C5C=CNC5=NC=C4 [AZD6738] (first compound max 1 µM, partner max 10 µM) | -0.0017 | -0.0386 | -0.0026 | 0.0189 | 0.0015 | 0.0852 | -0.0359 | -0.0535 | 0.0133 | -0.0676 | -0.0611 | 0.0285 | -0.0313 | 0.006 | 0.0364 | 0.0216 | -0.0084 | 0.675 | 0.822 | 0.331
7 | C=CCn1c(=O)c2cnc(Nc3ccc(N4CCN(C)CC4)cc3)nc2n1-c1cccc(C(C)(C)O)n1 [AZD1775] + O=C(c1cc(Cc2n[nH]c(=O)c3ccccc23)ccc1F)N1CCN(C(=O)C2CC2)CC1 [Olaparib] (first compound max 1 µM, partner max 10 µM) | 0.0156 | -0.0731 | -0.0311 | 0.0278 | -0.0547 | -0.0404 | 0.042 | -0.0352 | -0.0848 | -0.0543 | -0.0871 | 0.0183 | -0.0667 | -0.0494 | -0.019 | -0.0407 | -0.0137 | 0.528 | 0.679 | 0.288
8 | CCN(CCO)CCCOc1ccc2c(Nc3cc(CC(=O)Nc4cccc(F)c4)[nH]n3)ncnc2c1 [AZD2811] + C=CCn1c(=O)c2cnc(Nc3ccc(N4CCN(C)CC4)cc3)nc2n1-c1cccc(C(C)(C)O)n1 [AZD1775] (first compound max 1 µM, partner max 1 µM) | -0.004 | -0.0363 | -0.0295 | -0.0282 | -0.0413 | -0.0465 | -0.037 | 0.032 | -0.176 | -0.0155 | -0.021 | 0.0539 | 0.015 | -0.0369 | -0.0021 | -0.0589 | 0.0099 | 0.502 | 0.568 | 0.225
9 | CCN(CCO)CCCOc1ccc2c(Nc3cc(CC(=O)Nc4cccc(F)c4)[nH]n3)ncnc2c1 [AZD2811] + C[C@@H]1COCCN1C2=NC(=NC(=C2)C3(CC3)[S@](=N)(=O)C)C4=C5C=CNC5=NC=C4 [AZD6738] (first compound max 1 µM, 7x7, partner max 10 µM) | -0.01 | -0.0508 | -0.0361 | -0.0633 | -0.075 | -0.0366 | -0.0388 | -0.0818 | -0.0642 | -0.0905 | -0.0793 | -0.0417 | -0.106 | -0.0864 | -0.0454 | -0.0114 | -0.0654 | 0.502 | 0.551 | 0.232
10 | CCN(CCO)CCCOc1ccc2c(Nc3cc(CC(=O)Nc4cccc(F)c4)[nH]n3)ncnc2c1 [AZD2811] + O=C(c1cc(Cc2n[nH]c(=O)c3ccccc23)ccc1F)N1CCN(C(=O)C2CC2)CC1 [Olaparib] (first compound max 1 µM, 7x7, partner max 10 µM) | 0.0459 | -0.0339 | 0.0022 | -0.0746 | 0.0589 | -0.0179 | 0.032 | -0.0608 | -0.0088 | -0.0596 | -0.0468 | 0.0053 | -0.0061 | 0.0014 | -0.107 | -0.022 | 0.007 | 0.307 | 0.454 | 0.236
11 | CN(CCO)CC[C@H](CSc1ccccc1)Nc1ccc(S(=O)(=O)NC(=O)c2ccc(N3CCC([C@@H](O)c4ccccc4-c4ccc(Cl)cc4)CC3)cc2)cc1S(=O)(=O)C(F)(F)F [AZD4320] + C1CN(CCC1(C(=O)N[C@@H](CCO)C2=CC=C(C=C2)Cl)N)C3=NC=NC4=C3C=CN4 [Capivasertib] (first compound max 1 µM, 7x7, partner max 3 µM) | 0.0455 | -0.0277 | -0.0582 | -0.0491 | -0.028 | -0.0136 | -0.0258 | -0.078 | 0.0397 | -0.0456 | -0.0338 | -0.0211 | -0.0589 | 0.0013 | -0.0312 | 0.0311 | -0.0456 | 0.829 | 0.0618 | –
12 | COc1nnc2ccc(N3CCC(c4ccc(OCCN5CCN(C)C(=O)[C@H]5C)cc4)CC3)nn12 [AZD5153] + CN(CC[C@H](CSC1=CC=CC=C1)NC2=C(C=C(C=C2)S(=O)(=O)NC(=O)C3=CC=C(C=C3)N4CCC(CC4)[C@H](C5=CC=CC=C5C6=CC=C(C=C6)Cl)O)S(=O)(=O)C(F)(F)F)CCO [AZD4320] (first compound max 1 µM, 7x7, partner max 1 µM) | 0.085 | – | 0.0257 | – | – | – | – | 0.0455 | 0.0506 | – | – | -0.0232 | -0.0236 | – | – | – | 0.04 | 0.941 | 0.419 | 0.628
13 | CC(=O)c1c(C)c2cnc(Nc3ccc(N4CCNCC4)cn3)nc2n(C2CCCC2)c1=O [Palbociclib] + CN(CC[C@H](CSC1=CC=CC=C1)NC2=C(C=C(C=C2)S(=O)(=O)NC(=O)C3=CC=C(C=C3)N4CCC(CC4)[C@H](C5=CC=CC=C5C6=CC=C(C=C6)Cl)O)S(=O)(=O)C(F)(F)F)CCO [AZD4320] (first compound max 10 µM, 7x7, partner max 1 µM) | 0.0465 | – | -0.0615 | – | – | – | – | -0.143 | 0.0047 | – | – | 0.0082 | -0.0929 | – | – | – | -0.0313 | 0.883 | 0.126 | 0.803
14 | CCc1c2c(nc3ccc(O)cc13)-c1cc3c(c(=O)n1C2)COC(=O)[C@]3(O)CC [SN-38] + O=C(c1cc(Cc2n[nH]c(=O)c3ccccc23)ccc1F)N1CCN(C(=O)C2CC2)CC1 [Olaparib] (first compound max 0.3 µM, 7x7, partner max 10 µM) | 0.0811 | 0.071 | – | 0.0889 | 0.101 | -0.0523 | 0.0414 | -0.0274 | – | 0.0545 | 0.0059 | – | 0.0064 | 0.104 | 0.119 | -0.0477 | – | 0.423 | 0.932 | –
15 | C[C@@H](c1ccc2nccn2c1)n1nnc2ncc(-c3cnn(C)c3)nc21 [Savolitinib] + CN(CC[C@H](CSC1=CC=CC=C1)NC2=C(C=C(C=C2)S(=O)(=O)NC(=O)C3=CC=C(C=C3)N4CCC(CC4)[C@H](C5=CC=CC=C5C6=CC=C(C=C6)Cl)O)S(=O)(=O)C(F)(F)F)CCO [AZD4320] (first compound max 1 µM, 7x7, partner max 1 µM) | -0.0452 | – | -0.103 | – | – | – | – | -0.0975 | 0.0158 | – | – | -0.0158 | -0.0576 | – | – | – | -0.0491 | 0.744 | 0.0887 | 0.182
